Measurements from patent US20260327263A1, “Anti-Bacterial Peptides” (priority 2023, published 2026).
Entries after “also recorded” stand apart in the source; their conditions may differ. Where no end group is shown, it is not given here.

Tests used:
[1] = system: Pseudomonas aeruginosa (PA); experiment: Live-dead staining of bacteria (membrane damage); format: cell-based, Pseudomonas aeruginosa (ATCC 14213)
Protocol: FIG. 2 verifies the effects of exemplary variant peptides in disrupting bacterial membranes. To test whether exemplary peptide E1AM2 causes membrane damage in bacteria, live and dead staining of exemplary bacteria strain Pseudomonas aeruginosa (ATCC 14213, PA) are performed in the presence of different concentrations of E1AM2 peptide. […] Scale bar-3 μm. The lesser number of PA cells observed upon E1AM2 treatment at these concentrations is due to leaking of the bacteria caused by membrane disruption. Thus, peptide variants with the cationic arm show bacterial membrane disrupting ability. FIG. 2B provides a quantification of Syto-9 and PI-positive Pseudomonas aeruginosa (PA) cells 24 hours post E1AM2 treatment.
Scale bar=3 μm. […] The percentage of PA cells with (PI-positive, red) and without (Syto-9 stained, green) membrane damage following E1AM2 V8LQ19L peptide treatment are shown.
PA was treated with E1AM2 for 24 hours followed by live-dead saining in accordance to the manufacturers' instruction (LIVE/DEAD™ BacLight™ Bacterial Viability Kit, for microscopy & quantitative assays).

[2] = system: human red blood cells (hRBCs); experiment: Hemolysis assay; format: cell-based; conditions: for minimum concentration corresponding to 10% hemolysis (HC) / hemolysis (in words): hRBCs; for minimum concentration corresponding to 10% hemolysis (HC): 37° C.; for hemolysis (in words): FIG. 8 up to 100 μM
Protocol: The hemolytic score of the peptide variants and pexiganan (SEQ ID NO: 54) are compared to a strong hemolytic peptide, melittin 12 as a control. […] The minimum peptide concentration corresponding to 10% hemolysis (minimal hemolysis concentration, HC) of E1AM2=50 μM, V8LQ19L=12.5 μM, V8LQ19L C-2=3.125 μM, and pexiganan=12.5 μM respectively. Readings of the melittin at 3.125 μM were normalised to 100%.
Examination of hemolytic activity of ultra-short peptides was performed by isolating the red blood cells (RBCs) from human blood samples by centrifugation (1000 g, 4° C., 10 min) and resuspension in 27 mL PBS. This washing step was repeated four times before the RBCs were diluted to a 10% (v/v) suspension. […] Hemolytic properties of E1AM2 and pexiganan were evaluated with melittin used as a positive control, and PBS as a negative control. The plates were incubated at 37° C., for 30 min and then centrifuged (1258 g, 4° C., 6 min). 75 μL of supernatant were transferred into a flat-bottom clear 96-well plate and the OD576 nm was read. Readings of the melittin sample at 3.125 μM were normalized to 100%.

[3] = system: Pseudomonas aeruginosa (PA); experiment: Murine excisional wound infection model (PA); format: in vivo, mouse infected with Pseudomonas aeruginosa; conditions: mouse; 1x MBC (6.25 μM), 24 h treatment, vs PBS; p<0.05
Protocol: Excisional wounds in mice are infected with Pseudomonas aeruginosa (PA) for 24 hrs followed by 24 hrs of treatment with E1AM2 or PBS. Each circle represents a single mouse. Statistical analysis was performed by the two-tailed t-test using GraphPad, *p<0.05.
Excisional wounds infected with PA for 24 hours being treated for 24 hours with the E1AM2 V8LQ19L hydrogel at its 1X MBC concentration, compared with hydrogel-only treatment in a mouse model. […] Each circle in the graph represents one mouse. Statistical significance was determined using a t-test, with *p<0.05. The data are presented as colony-forming unit counts presented as means±SEM. […] Collectively, the E1AM2 V8LQ19L peptide showcases unique functionality, combining antibacterial effectiveness and biocompatibility for dermal applications.
The murine wound infection model was carried out as described in 4 with minor modifications. Before infection, PA strain was diluted to an OD ~0.5, and normalized to 1-3×10^7 CFU/ml. A 6 mm biopsy punch (Integra Miltex, New York, USA) was used to create a full-thickness wound, and an inoculum of ~10^5 CFU of the bacteria in a 5 μl volume was applied. The wound was sealed with a Finn chamber on a Scanpor tape (Smart Practice, Phoenix, AZ, USA), and the chamber was fixed to the skin via Tegaderm patch (3M™, Minnesota, USA). […]

[4] = system: bacteria; experiment: Comparison of lead peptide to standard of care (Table 16)
[5] = system: fibroblasts (HFF-1); experiment: Cell proliferation assay, HFF-1 fibroblasts; format: cell-based; conditions: 24 h
[6] = system: pathogens isolated from the infected tissues of DFU patients; experiment: Antibacterial test on pathogens from infected DFU tissues; format: cell-based
Protocol: The varied colours and morphologies highlight the presence of multiple species and a diverse bacterial population within the infected tissues. Method: Freshly debrided infected tissues from DFU patients are weighed and immersed in 2 ml of MHB (Mueller-Hinton Broth) media for 48 hours to soften the tissues, facilitating the release of bacteria. These samples are subsequently sonicated for 1 minute at a 15A amplitude using a water bath sonicator to release the bacteria. The resultant slurry is plated on MHB media supplemented with 1.5% agar to isolate all bacteria. These bacterial isolates are then evaluated for their antibacterial efficacy following the CLSI (Clinical and Laboratory Standards Institute) guidelines.
In some examples, the effective bacteria killing concentration range for the variant peptides can be, but is not limited to at least about 1.5 μM, at least about 2 μM, at least about 2.5 μM, at least about 5 μM, at least about 7.5 μM, at least about 10 μM, at least about 12.5 μM, at least about 15 μM, at least about 15 μM, at least about 17.5 μM, at least about 20 μM, at least about 25 μM, at least about 35 μM, or at least about 45 μM. In one example, the effective biofilm disruption concentration ranges from about 1.5 μM-25 μM or 1.5 μM-50 μM. In another example, the concentration is between about 40 μM to 50 μM.

Substance	incorporation of propidium iodide (PI), membrane damage ([1]; at 1× MIC (3.125 μM) and 1X MBC (6.25 μM), 24 h) [%]	hemolysis ([2]; at respective MIC/MBC concentrations, melittin 3.125 μM = 100%, 30 min)	minimum concentration corresponding to 10% hemolysis (HC) ([2]; 30 min) [µM]	hemolysis (in words) [2]	PA infection at wound site (CFU) [3]	AMR Prevention [4]	Negligible Cytotoxicity [4]	No Allergic/Adverse Reactions [4]	Targeted bacteria-specific eradication [4]	Wound Healing Support [4]	Antibacterial Efficacy ([4]; Broad- (spectrum continues on next line))	mechanism of bacterial killing (live/dead) ([1]; FIG. 12)	HFF-1 proliferation ([5]; certain concentrations)	cytotoxicity to HFF-1 ([5]; up to highest tested concentrations (peptide), 3% (H2O2))	elimination of pathogens in DFU tissue (in words) ([6]; FIG. 11)	elimination of bacteria from DFU tissue ([6]; at 50 μM)
E1AM2: untagged (E1AM2), KKLLKKWVKLSKKALKLAQSL	100	~ 0%	50	do not cause hemolysis	effective reduction of PA infection; also recorded: significant bacterial clearance at the wound site											
KKLLKKWLKLSKKALKLALSL-NH2 [V8LQ19L]			12.5	do not cause hemolysis		Yes	Yes	Yes	Yes	Yes	Broad-	primarily through membrane damage	enhanced proliferation	noncytotoxic	effective elimination of pathogens	over 99%
